These are literature values, as cited in patent publication US20100104634A1, “PHARMACEUTICAL COMPOSITIONS OF ENTACAPONE” (priority 2006, published 2010).

For this data set the following is noted: low solubility, low dissolution rate, low bioavailability.

For the compound `CCN(CC)C(=O)/C(C#N)=C/c1cc(O)c(O)c([N+](=O)[O-])c1` [Entacapone, (E)-2-cyano-3-(3,4-dihydroxy-5-nitrophenyl)-N,N-diethyl-2-propenamide], the “Biopharmaceutics Classification system (BCS) class” value is recorded as “class IV”.
